What was measured:
[1] = ABTS radical cation scavenging activity assay; settings: 734 nm; read-out: ABTS+/IC50 (μM) ± SD
Experimental: ABTS free radical scavenging activity was performed according to the procedure described by Zhang et al.[40] Test solution of ABTS decolourisation assay was prepared by mixing 2.45 mM potassium persulfate and 7 mM ABTS at 8:12 volume/volume ratio. The working solution was kept in the dark at room temperature for 12–18 h. Before ABTS radical scavenging test, the ABTS test solution was diluted with DMSO to absorbance of 0.7 (±0.02) at 734 nm. One millilitre of diluted ABTS test solution was added to 10 μl of DMSO or test sample. After initial mixing, the working solution was kept in the dark at room temperature for 2–6 min, and the absorbance was measured at 734 nm. This test was carried out in triplicate. DMSO was used as a control. Ascorbic acid was used as antioxidant standard for comparison of the activity. The absorbance of test samples was calculated by the following formula. ABTS scavenging ability %=absorbance of standard−absorbance of sample/absorbance of standard×100.

[2] = DPPH free radical scavenging activity assay; settings: DPPH 150 μM, 30 min, 517 nm; read-out: DPPH/IC50 (μM) ± SD
Experimental: The anti-oxidation effect on DPPH radical was determined by a slightly modified version of a previously described DPPH radical scavenging assay. Reaction mixtures consisted of 100 μl of DPPH (150 μM), 20 μl of increasing concentration of test compounds and the volume was adjusted to 200 μl in each well with DMSO. The assay solution was then incubated at room temperature (25 °C) for 30 min in the dark. After the incubation, absorbance at 517 nm was measured by using UV-2600 spectrophotometer. The experiments were undertaken in triplicate. DMSO was used as a control. Ascorbic acid was used as antioxidant standard for comparison of the activity. The calculation of DPPH radical scavenging activity was followed by this formula: DPPH radical scavenging activity %=absorbance of standard−absorbance of sample/Absorbance of standard×100

[3] = molecular target: mushroom tyrosinase (Agaricus bisporus, UniProt C7FF04); assay: In vitro mushroom tyrosinase inhibition (L-DOPA substrate); format: biochemical; settings: 475 nm, read-out: IC50 (μM) ± SD, inhibitory tyrosinase activity
mushroom tyrosinase, sequence (C7FF04 1-392): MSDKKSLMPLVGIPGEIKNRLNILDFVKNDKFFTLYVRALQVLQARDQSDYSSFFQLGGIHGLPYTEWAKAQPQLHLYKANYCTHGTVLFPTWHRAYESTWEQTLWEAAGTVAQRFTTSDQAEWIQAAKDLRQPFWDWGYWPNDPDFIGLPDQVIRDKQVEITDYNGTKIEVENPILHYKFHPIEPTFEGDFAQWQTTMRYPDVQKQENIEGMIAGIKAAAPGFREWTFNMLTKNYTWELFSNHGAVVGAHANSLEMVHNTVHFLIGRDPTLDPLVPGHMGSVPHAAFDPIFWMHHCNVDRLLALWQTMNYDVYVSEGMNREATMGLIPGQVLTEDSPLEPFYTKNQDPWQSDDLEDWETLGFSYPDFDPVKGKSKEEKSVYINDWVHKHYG
Experimental: The mushroom tyrosinase inhibitory activity was determined according to previous described method. Briefly, 168 μl of phosphate buffer (0.1 M, pH 6.8), 10 μl of mushroom tyrosinase (0.5 mg/ml, Sigma Chemical, St. Louis, MO) and 2 μl of the inhibitor solution were placed in the wells of a 96-well micro plate. After pre-incubation for 20 min at 37 °C, 20 μl of 2.0 mg/ml L-DOPA (3,4-dihydroxyphenylalanine, Sigma Chemical, St. Louis, MO) was added and the enzyme activity was measured at 475 nm every 60 s for 180 s in a Microplate Reader (Bio-Rad Laboratories, Inc., Hercules, CA). Kojic acid and phosphate buffer were respectively used as positive and negative control. The extent of inhibition by the test compounds was expressed as the percentage of concentration necessary to achieve 50% inhibition (IC50). The percentage of inhibition was calculated as follows: inhibitory rate (%) = [Ac − At)/Ac] × 100. Ac is the absorbance of the negative control and At is the absorbance of the test compound. Each concentration was analysed in three independent experiments run in triplicate. The IC50 values were determined by the data analysis software GraphPad Prism 8 (La Jolla, CA).
The tyrosinase inhibition measurements of compounds 6a–6x were carried out using L-DOPA as substrate. Kojic acid was selected as a positive control compound. […]. […] Moreover, inhibitory activity of compound with hydroxyl group at papa position is better than the inhibitory activity of compound with hydroxyl group at meta position, and inhibitory activity of compound with hydroxyl group at meta position is better than the inhibitory activity of compound with hydroxyl group at ortho position. […]. […] In addition, with the increase of atomic radius, the inhibitory activity gradually decreases. (3) The inhibitory activity of alkoxy substituted compound is better than that of alkyl substituted compound. (4) Comparing the tyrosinase inhibitory activity of compounds with halogen atom (6b–6d, 6q–6s) and compounds with methyl or methoxy (6e–6f, 6t–6u), when the hydrogen (R^2) was replaced by the methyl (R^2), the inhibitory activity was decreased.

Compound	IC50 [1] [µM]	IC50 [2] [µM]	IC50 [3] [µM]
NC(=S)NN=Cc1ccc(F)cc1OCc1cn(Cc2cc(=O)c(O)co2)nn1 [Compound 6b, 2-(4-Fluoro-2-((1-((5-hydroxy-4-oxo-4H-pyran-2-yl)methyl)-1H-1,2,3-triazol-4-yl)methoxy)benzylidene)hydrazinecarbothioamide]	63.1 ± 0.042	105.4 ± 0.115	–
Cc1ccc(C=NNC(N)=S)c(OCc2cn(Cc3cc(=O)c(O)co3)nn2)c1 [Compound 6f, 2-(2-((1-((5-Hydroxy-4-oxo-4H-pyran-2-yl)methyl)-1H-1,2,3-triazol-4-yl)methoxy)-4-methylbenzylidene)hydrazinecarbothioamide]	34.95 ± 0.061	99.6 ± 0.056	–
Cc1ccc(OCc2cn(Cc3cc(=O)c(O)co3)nn2)c(C=NNC(N)=S)c1 [Compound 6i, 2-(2-((1-((5-Hydroxy-4-oxo-4H-pyran-2-yl)methyl)-1H-1,2,3-triazol-4-yl)methoxy)-5-methylbenzylidene)hydrazinecarbothioamide]	61.66 ± 0.091	248.1 ± 0.041	–
COc1ccc(C=NNC(N)=S)c(OCc2cn(Cc3cc(=O)c(O)co3)nn2)c1 [Compound 6e, 2-(2-((1-((5-Hydroxy-4-oxo-4H-pyran-2-yl)methyl)-1H-1,2,3-triazol-4-yl)methoxy)-4-methoxybenzylidene)hydrazinecarbothioamide]	8.24 ± 0.048	87.47 ± 0.144	–
NC(=S)NN=Cc1ccccc1OCc1cn(Cc2cc(=O)c(O)co2)nn1 [Compound 6a, (2-((1-((5-Hydroxy-4-oxo-4H-pyran-2-yl)methyl)-1H-1,2,3-triazol-4-yl)methoxy)benzylidene)hydrazinecarbothioamide]	43.89 ± 0.034	173.2 ± 0.058	–
CC(C)(C)c1cccc(C=NNC(N)=S)c1OCc1cn(Cc2cc(=O)c(O)co2)nn1 [Compound 6k, 2-(3-(Tert-butyl)-2-((1-((5-hydroxy-4-oxo-4H-pyran-2-yl)methyl)-1H-1,2,3-triazol-4-yl)methoxy)benzylidene)hydrazinecarbothioamide]	9.31 ± 0.022	49.17 ± 0.077	–
NC(=S)NN=Cc1ccc(Br)cc1OCc1cn(Cc2cc(=O)c(O)co2)nn1 [Compound 6d, 2-(4-Bromo-2-((1-((5-hydroxy-4-oxo-4H-pyran-2-yl)methyl)-1H-1,2,3-triazol-4-yl)methoxy)benzylidene)hydrazinecarbothioamide]	91.1 ± 0.033	71.43 ± 0.036	–
CC(=NNC(N)=S)c1ccc(F)cc1OCc1cn(Cc2cc(=O)c(O)co2)nn1 [Compound 6q, 2-(1-(4-Fluoro-2-((1-((5-hydroxy-4-oxo-4H-pyran-2-yl)methyl)-1H-1,2,3-triazol-4-yl)methoxy)phenyl)ethylidene)hydrazinecarbothioamide]	6.61 ± 0.054	47.05 ± 0.042	–
CC(=NNC(N)=S)c1ccc(C)cc1OCc1cn(Cc2cc(=O)c(O)co2)nn1 [Compound 6u, 2-(1-(2-((1-((5-Hydroxy-4-oxo-4H-pyran-2-yl)methyl)-1H-1,2,3-triazol-4-yl)methoxy)-4-methylphenyl)ethylidene)hydrazinecarbothioamide]	5.27 ± 0.078	55.7 ± 0.154	–
2-(3-((1-((5-Hydroxy-4-oxo-4H-pyran-2-yl)methyl)-1H-1,2,3-triazol-5-yl)methoxy)benzylidene)hydrazinecarbothioamide [Compound 6l]	40.23 ± 0.071	81.67 ± 0.073	5.45 ± 0.077
CC(=NNC(N)=S)c1ccc(Br)cc1OCc1cn(Cc2cc(=O)c(O)co2)nn1 [Compound 6s, 2-(1-(4-Bromo-2-((1-((5-hydroxy-4-oxo-4H-pyran-2-yl)methyl)-1H-1,2,3-triazol-4-yl)methoxy)phenyl)ethylidene)hydrazinecarbothioamide]	11.29 ± 0.033	105.8 ± 0.092	–
CC(=NNC(N)=S)c1cccc(OCc2cn(Cc3cc(=O)c(O)co3)nn2)c1 [Compound 6v, 2-(1-(3-((1-((5-Hydroxy-4-oxo-4H-pyran-2-yl)methyl)-1H-1,2,3-triazol-4-yl)methoxy)phenyl)ethylidene)hydrazinecarbothioamide]	3.2 ± 0.091	16.27 ± 0.093	–
2-(4-((1-((5-Hydroxy-4-oxo-4H-pyran-2-yl)methyl)-1H-1,2,3-triazol-5-yl)methoxy)benzylidene)hydrazinecarbothioamide [Compound 6m]	36.17 ± 0.018	195 ± 0.038	1.58 ± 0.092
2-(1-(4-((1-((5-Hydroxy-4-oxo-4H-pyran-2-yl)methyl)-1H-1,2,3-triazol-5-yl)methoxy)-3-methylphenyl)ethylidene)hydrazinecarbothioamide [Compound 6x]	19.94 ± 0.081	159.2 ± 0.061	2.35 ± 0.021
CCOc1cccc(C=NNC(N)=S)c1OCc1cn(Cc2cc(=O)c(O)co2)nn1 [Compound 6j, 2-(3-Ethoxy-2-((1-((5-hydroxy-4-oxo-4H-pyran-2-yl)methyl)-1H-1,2,3-triazol-4-yl)methoxy)benzylidene)hydrazinecarbothioamide]	6.78 ± 0.082	25.6 ± 0.031	–
CC(=NNC(N)=S)c1ccccc1OCc1cn(Cc2cc(=O)c(O)co2)nn1 [Compound 6p, 2-(1-(2-((1-((5-Hydroxy-4-oxo-4H-pyran-2-yl)methyl)-1H-1,2,3-triazol-4-yl)methoxy)phenyl)ethylidene)hydrazinecarbothioamide]	3.19 ± 0.034	10.53 ± 0.014	–
NC(=S)NN=Cc1cc(Cl)ccc1OCc1cn(Cc2cc(=O)c(O)co2)nn1 [Compound 6g, 2-(5-Chloro-2-((1-((5-hydroxy-4-oxo-4H-pyran-2-yl)methyl)-1H-1,2,3-triazol-4-yl)methoxy)benzylidene)hydrazinecarbothioamide]	52.65 ± 0.109	133.8 ± 0.048	–
CC(=NNC(N)=S)c1ccc(Cl)cc1OCc1cn(Cc2cc(=O)c(O)co2)nn1 [Compound 6r, 2-(1-(4-Chloro-2-((1-((5-hydroxy-4-oxo-4H-pyran-2-yl)methyl)-1H-1,2,3-triazol-4-yl)methoxy)phenyl)ethylidene)hydrazinecarbothioamide]	4.49 ± 0.103	53.54 ± 0.088	–
COc1ccc(C(C)=NNC(N)=S)c(OCc2cn(Cc3cc(=O)c(O)co3)nn2)c1 [Compound 6t, 2-(1-(2-((1-((5-Hydroxy-4-oxo-4H-pyran-2-yl)methyl)-1H-1,2,3-triazol-4-yl)methoxy)-4-methoxyphenyl)ethylidene)hydrazinecarbothioamide]	3.91 ± 0.064	86.3 ± 0.058	–
O=C1O[C@H]([C@@H](O)CO)C(O)=C1O [Vitamin C, Ascorbic acid, reference compound]	55.48 ± 0.04	27.25 ± 0.015	–
2-(4-((1-((5-Hydroxy-4-oxo-4H-pyran-2-yl)methyl)-1H-1,2,3-triazol-5-yl)methoxy)-3-methoxybenzylidene)hydrazinecarbothioamide [Compound 6n]	44.4 ± 0.068	176.2 ± 0.061	8.4 ± 0.009
NC(=S)NN=Cc1cc(Br)ccc1OCc1cn(Cc2cc(=O)c(O)co2)nn1 [Compound 6h, 2-(5-Bromo-2-((1-((5-hydroxy-4-oxo-4H-pyran-2-yl)methyl)-1H-1,2,3-triazol-4-yl)methoxy)benzylidene)hydrazinecarbothioamide]	68.49 ± 0.091	118.4 ± 0.049	–
NC(=S)NN=Cc1ccc(Cl)cc1OCc1cn(Cc2cc(=O)c(O)co2)nn1 [Compound 6c, 2-(4-Chloro-2-((1-((5-hydroxy-4-oxo-4H-pyran-2-yl)methyl)-1H-1,2,3-triazol-4-yl)methoxy)benzylidene)hydrazinecarbothioamide]	72.03 ± 0.084	104.7 ± 0.088	–

Reference: paper PMC11983575, “Study on the synthesis and biological activity of kojic acid triazol thiosemicarbazide Schiff base derivatives” (Journal of Enzyme Inhibition and Medicinal Chemistry, 2025)
